Results taken from patent US7563862B2, “Neural regeneration peptides and methods for their use in treatment of brain damage” (Neuren Pharmaceuticals Limited, priority 2001, dated 2009).
Ends that are not written are not given here.

How the values were obtained:
thalamocortical OTCs = experiment: thalamocortical OTC neuronal migration assay (cell bridge / cell chain); assay type: cell-based, rat
Source text: We developed a new assay system for identifying NRP having migration-inducing activity. The assay system was used following guidelines approved by the Gesundheitsamt Magdeburg animal ethics committee. Newborn Long Evans rats (P0) were killed by decapitation, and neural tissues were used for preparation of organotypic cultures (OTCs). Neocortical tissue (areas 17-18 according to the Paxinos rat atlas of the developing rat brain) and thalamic tissue from the dorsal thalamus (visual areas) were extracted. These areas represent the visual axis. The dorsal thalamus was accessed by an intersection cut to remove the hypothalamus. Subsequently, the thalamus was sliced frontally using a McIllwain tissue chopper into 350 μm thick slices. Using a dissecting microscope, the habenula nucleus served as a landmark to select only dorsal thalamic areas. Cortical tissues were cut using two sagittal and two frontal intersections in order to obtain areas 17-18 of the occipital cortex. Before the last frontal cut was made, the hippocampal formation was removed. The cortical tissues were sliced by a Mclllwain tissue chopper into 350 μm thick frontal slices and was incubated in Gey's balanced salt solution (GBSS) plus 0.65% D(+)glucose, and tissuesswere kept at 4° C. for at least 30-40 minutes for recovery.
For each assay, two slices of tissue, one cortical and one thalamic, were arranged at a distance at least about 3 mm from each other on a glass substrate (e.g., a cover slip; FIG. 1). The thalamus was oriented with the habenula nucleus facing cortical layer VI. The tissues were adhered to the substrate using a plasma clot (10 μl chicken plasma (Cocalico) coagulated with 10 μl thrombin (25 U/ml, ICN) and the tissues were subsequently cultured (cultivated) at 36° C. in a roller tube incubator as organotypic cultures using 2/4 BME/¼ HBSS (Invitrogen) medium supplemented with 25% heat-inactivated horse serum (Gaehwiler, 1981) plus 2 mM L0glutamine and 0.65% D-glucose. A 712.5 μl sample of prepared medium was supplemented with 37.5 μl of purified rat NRP-1 (SEQ ID NO:2) (in concentrated or diluted form) in 0.01 M sodium phosphate (pH 7.3) or phosphate alone (control). For the experiments using 600 ng/ml NRP-1, the peptide was concentrated 4 times by speed vacuum centrifugation. The medium containing NRP was changed every three days. After each study was completed, the tissues were fixed using conventional fixatives, and migrating neurons were analysed by immunocytochemistry.
Thus, any observations of neurite outgrowths or interconnecting cell bridges are due to the influence of factors added to the culture medium. […] Thus, in certain embodiments of this invention, NRPs can be identified and/or quantified. In other embodiments, NRPs amounts can be standardized, forming a basis for therapeutic application of NRPs to treat neurological diseases or conditions.
Migration of the thalamic neurons was determined after 3 days of co-culture in the presence of NRP. The migration distances were measured by a micrometer scaled-microscopic ocular, beginning from the tissue margin of the migrating cell stream. As a threshold value for the formation of a migrating cell chain was considered to be a number of at least 5 interconnected neurons. For the determination of the dose-response curve, the longest distance of a migrated neuron from the thalamic tissue margin was measured. Results are given as mean values+/− standard deviation.

embryonic cortical cells = experiment: haptotactic migration assay, cortical cells; assay type: cell-based, rat; conditions: 1 day in vitro
Source text: To test the cell adhesion and neuronal migration inducing properties of the NRPs a haptotactic migration cell assay was developed (Lu et al.,2001). For this purpose Transwell® cell culture dishes (Costar) with fitting inserts having pores therein with a 12 μm pore size were used to cultivate striatal and neocortical cells. In general, a test agent was adhered to the surface of a culture dish and an insert having pores was placed in culture medium over but not in contact with the surface of the culture dish. Test cells were placed in the inserts, and any cells migrating through the pores and onto the surface of the culture dish reflected chemattractiveness by the test molecule. Under these conditions, the surface of the culture dish would, over time, release some NRP molecules into the culture medium. It can be appreciated that the concentration of “free” NRP would be greater nearer the surface of the culture dish than at distances farther away from the culture dish, thereby creating a gradient in NRP concentration. […] By counting the number and morphology of such migrant cells, effects of NRPs on neuronal migration and differentiation can be evaluated. […]
For seeding striatal cells, 1.5 ml of Neurobasal/B27 medium was put into the culture dishes and 0.5 ml of NeurobasaVB27 medium was put into the insert. The assay was ready for cell seeding. […]

Substance: NRP-1: rat 16 amino acid neural regeneration peptide purified from hippocampal OTC supernatant, Tyr Asp Pro Glu ... Cys His-NH2 (YDPEAASAPGSGNPCH-NH2)
- concentration at which neuronal migration was clearly detected (thalamocortical OTCs; 2 ng/ml = 1 nM): 2 ng/mL
- length of cell bridge between the thalamic and cortical tissues (thalamocortical OTCs; 6 ng/ml (3 nM)): 2500±240 μm
- concentrations at which neuronal migration was not increased (thalamocortical OTCs; 10-30 nM): 20 to 60 ng/mL
- interconnecting neurite network formed, time after cultivation start (thalamocortical OTCs; NRP-1 supplemented co-cultures): ≤ 36 h
- concentration producing the longest cell chain (thalamocortical OTCs; dose-response 2-600 ng/ml, 6 ng/ml = 3 nM): 6 ng/mL
- concentration producing the greatest effect (migrating cell chain) (thalamocortical OTCs; thalamocortical OTCs): 3 nM

Substance: SEPEARRAPGRKGGVVCASLAADW-NH2 [NRP-7 segment SW, 24-mer form of mouse NRP-7]
- more neurons migrated to the culture dish bottom compared to BSA control (embryonic cortical cells; 15 ng immobilized, 1 pg/ml in medium): 49.8%
- number of cells with neurite outgrowth (embryonic cortical cells; 0.1 and 1 μg/ml coating in BSA): significantly increased
